Measured values: the supplement of paper PMC10307832

How the values were obtained:
Experiment in all cases: relative viability (nuclei count vs DMSO), 5 days (fraction); higher = more cells survive
[1] = compound: CO[C@H]1C[C@@H]2CC[C@@H](C)[C@@](O)(O2)C(=O)C(=O)N2CCCC[C@H]2C(=O)O[C@H]([C@H](C)C[C@@H]2CC[C@@H](OCCO)[C@H](OC)C2)CC(=O)[C@H](C)/C=C(\C)[C@@H](O)[C@@H](OC)C(=O)[C@H](C)C[C@H](C)/C=C/C=C/C=C/1C [Everolimus] + CCNC(=O)c1noc(-c2cc(C(C)C)c(O)cc2O)c1-c1ccc(CN2CCOCC2)cc1 [Luminespib] (partner 0.01 µM)
How it was run: (§1)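 Values are medians from duplicate plates. Each reflects relative viability, defined as the nuclei count of treated wells over that of vehicle wells. Lung cancer cell lines in 1536-well plates were pin-tool dosed one day after seeding with one drug alone or with a fixed anchor-drug dose plus five library-drug doses (not always all listed) in √10 steps, then fixed, stained and imaged at 4× after 5 days.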

[2] = compound: CO[C@H]1C[C@@H]2CC[C@@H](C)[C@@](O)(O2)C(=O)C(=O)N2CCCC[C@H]2C(=O)O[C@H]([C@H](C)C[C@@H]2CC[C@@H](OCCO)[C@H](OC)C2)CC(=O)[C@H](C)/C=C(\C)[C@@H](O)[C@@H](OC)C(=O)[C@H](C)C[C@H](C)/C=C/C=C/C=C/1C [Everolimus] + COc1cc2c(Oc3ccc(NC(=O)C4(C(=O)Nc5ccc(F)cc5)CC4)cc3F)ccnc2cc1OCCCN1CCOCC1 [Foretinib] (partner 0.25 µM)
How it was run: as §1

[3] = compound: CO[C@H]1C[C@@H]2CC[C@@H](C)[C@@](O)(O2)C(=O)C(=O)N2CCCC[C@H]2C(=O)O[C@H]([C@H](C)C[C@@H]2CC[C@@H](OCCO)[C@H](OC)C2)CC(=O)[C@H](C)/C=C(\C)[C@@H](O)[C@@H](OC)C(=O)[C@H](C)C[C@H](C)/C=C/C=C/C=C/1C [Everolimus] + Cc1cc(Nc2cc(N3CCN(C)CC3)nc(Sc3ccc(NC(=O)C4CC4)cc3)n2)n[nH]1 [Tozasertib] (partner 0.1 µM)
How it was run: as §1

[4] = compound: CO[C@H]1C[C@@H]2CC[C@@H](C)[C@@](O)(O2)C(=O)C(=O)N2CCCC[C@H]2C(=O)O[C@H]([C@H](C)C[C@@H]2CC[C@@H](OCCO)[C@H](OC)C2)CC(=O)[C@H](C)/C=C(\C)[C@@H](O)[C@@H](OC)C(=O)[C@H](C)C[C@H](C)/C=C/C=C/C=C/1C [Everolimus] + NC(=O)Nc1cc(-c2cccc(F)c2)sc1C(=O)N[C@H]1CCCNC1 [AZD7762] (partner 0.2 µM)
How it was run: as §1

Cell Line	relative viability ([1]; first compound 0.01 µM)	relative viability ([1]; first compound 0.03162 µM)	relative viability ([1]; first compound 0.1 µM)	relative viability ([1]; first compound 0.3162 µM)	relative viability ([1]; first compound 1 µM)	relative viability ([2]; first compound 0.01 µM)	relative viability ([2]; first compound 0.03162 µM)	relative viability ([2]; first compound 0.1 µM)	relative viability ([2]; first compound 0.3162 µM)	relative viability ([2]; first compound 1 µM)	relative viability ([3]; first compound 0.01 µM)	relative viability ([3]; first compound 0.03162 µM)	relative viability ([3]; first compound 0.1 µM)	relative viability ([3]; first compound 0.3162 µM)	relative viability ([3]; first compound 1 µM)	relative viability ([4]; first compound 0.01 µM)	relative viability ([4]; first compound 0.03162 µM)	relative viability ([4]; first compound 0.1 µM)	relative viability ([4]; first compound 0.3162 µM)	relative viability ([4]; first compound 1 µM)
201T	0.85	0.816	0.838	0.823	0.874	0.996	0.913	0.895	0.795	0.865	0.898	0.913	0.801	0.843	0.906	0.466	0.476	0.407	0.421	0.47
A549						0.688	0.421	0.306	0.393	0.435										
A-427	0.584	0.611	0.651	0.779	0.729	0.742	0.624	0.639	0.684	0.757	0.17	0.164	0.203	0.184	0.19	0.498	0.527	0.587	0.446	0.595
ABC-1		0.342	0.316	0.371	0.355	0.82	0.826	0.645	0.699	0.739	0.183	0.172	0.163	0.193	0.208	0.667	0.479	0.747	0.702	0.89
BEN	0.191	0.152	0.201	0.161	0.168	0.336	0.268	0.277	0.323	0.35	0.462	0.452	0.491	0.415	0.354	0.377	0.394	0.417	0.41	0.444
CAL-12T	0.146	0.138	0.173	0.159	0.212	0.628	0.686	0.651	0.792	0.821	0.173	0.217	0.212	0.167	0.182	0.62	0.529	0.497	0.446	0.644
COR-L23	0.417	0.377	0.461	0.431	0.268	0.942	0.993	0.871	0.97	0.959	0.334	0.324	0.288	0.255	0.233					
COR-L 105	0.405	0.392	0.333	0.313	0.365	0.775	0.71	0.787	0.709	0.952	0.312	0.305	0.332	0.346	0.292					
Calu-6						0.845	0.785	0.811	0.77	0.742										
ChaGo-K-1	0.455	0.396	0.54	0.432	0.399	0.903	0.85	0.884	0.761	0.805	0.226	0.208	0.215	0.215	0.238	0.799	0.917	0.743	0.769	0.866
EBC-1						0.109	0.108	0.103	0.133	0.0957										
EKVX	0.623	0.475	0.336	0.447	0.425	0.582	0.808	0.428	0.444	0.555	0.327	0.333	0.214	0.257	0.259		0.68	0.41	0.415	0.432
EMC-BAC-2	0.789	0.714	0.689	0.735	0.613	0.66	0.564	0.576	0.643	0.521	0.289	0.296	0.244	0.258	0.266	0.846	0.761	0.645	0.653	0.692
EPLC-272H	0.162	0.176	0.188	0.203	0.263	0.451	0.414	0.443	0.417	0.489	0.19	0.286	0.176	0.242	0.216	0.133	0.229	0.172	0.172	0.222
H3255	0.594	0.584	0.479	0.504	0.498	0.572	0.621	0.458	0.294	0.565	0.597	0.55	0.412	0.462	0.402	0.74	0.562	0.595	0.632	0.509
HARA	0.748	0.768		0.407	0.203	0.754	0.847		0.793	0.845	0.226	0.126		0.116	0.293	0.15	0.335	0.223	0.309	0.252
HCC-15	0.45	0.449	0.368	0.387	0.191	1.15	1.03	1.01	0.964	0.985	0.483	0.457	0.437	0.365	0.272	1.37	1.26	1.33	1.24	1.48
HCC-44	1.02	0.851	1.05	0.938	1.56						1.07	1.07	0.94	0.97	1.19	1.1	1.18	1.03	1.12	1.25
